Laboratory results as given in patent publication US12173088B2, “Anti-microbial peptides” (priority 2018, dated 2024).
Values after ≈ are worked out from the molar mass of the structure shown. Read-outs that look alike come from different tables or passages of the source.

Tests used:
[1] = tested on: S. aureus USA300; assay: microbe, parasite or virus in culture; assay type: cell-based, Staphylococcus aureus; settings: Staphylococcus aureus, MRSA / USA300; Table 14; read-out: MIC S. aureus USA300 (MRSA)
In short: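 Broth microdilution: log-phase cultures in tryptic soy broth diluted to OD600 0.001, exposed to two-fold diluted peptides at 37° C overnight, growth read at 630 nm. Medium effects on S. aureus USA300 tested with up to 200 mM NaCl, 2 mM CaCl2, 5-10% human serum, mouse plasma, fluids or tissue homogenate supernatants.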

[2] = tested on: E. faecium V286-17 (VRE); assay: microbe, parasite or virus in culture; assay type: cell-based, Enterococcus faecium; settings: Enterococcus faecium, VRE, read-out: MIC E. faecium V286-17 (VRE)
In short: (§1)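 Peptides were serially diluted two-fold against bacteria grown in tryptic soy broth to log phase (OD600 ≈0.5), then seeded at OD600 0.001. Plates were held overnight at 37° C and read at 630 nm. USA300 was also tested at pH 6.8, 7.2 and 8.0, with 150 mM NaCl or 5-10% serum, plasma or peritoneal fluid.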

[3] = tested on: P. aeruginosa E411-17; assay: microbe, parasite or virus in culture; assay type: cell-based, Pseudomonas aeruginosa; settings: Pseudomonas aeruginosa, E41117; Table 14; read-out: MIC P. aeruginosa E411-17
In short: as §1

[4] = tested on: K. pneumoniae E406-17; assay: microbe, parasite or virus in culture; assay type: cell-based, Klebsiella pneumoniae; settings: Klebsiella pneumoniae, E40617; Table 14; read-out: MIC K. pneumoniae E406-17
In short: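 Broth microdilution in tryptic soy broth: log-phase cultures (OD600 ≈0.5) diluted to OD600 0.001, given two-fold peptide dilutions, incubated overnight at 37° C. Growth read at 630 nm.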

[5] = tested on: E. coli E423-17; assay: microbe, parasite or virus in culture; assay type: cell-based, Escherichia coli; settings: Escherichia coli, E42317; Table 14; read-out: MIC E. coli E423-17
In short: as §1

[6] = tested on: A. baumannii B26-16; assay: microbe, parasite or virus in culture; assay type: cell-based, Acinetobacter baumannii; settings: Acinetobacter baumannii, B2616; Table 14; read-out: MIC A. baumannii B26-16
In short: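 Broth microdilution in tryptic soy broth: log-phase cultures diluted to 0.001 OD600 and exposed to peptide dilutions overnight at 37 °C, growth read at 630 nm. For S. aureus USA300, medium effects tested at pH 6.8, 7.2 and 8.0, with 150 mM NaCl, or with 5–10% human serum, mouse plasma or peritoneal fluid.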

[7] = tested on: K. pneumoniae E406-17 biofilms; assay: Biofilm disruption and attachment; assay type: cell-based, Klebsiella pneumoniae
Experimental: Briefly, S. aureus USA300 and K. pneumoniae E406-17 (10^5 CFU/mL) were prepared from exponentially phase. Each well of the microtiter plate (Corning Costar® Cat No. 3595) was aliquoted with 180 μL of inoculum and the plates were incubated at 37° C. for 48 hours to form biofilm. Culture treated with water served as a positive control while media without bacterial inoculation served as the negative control. Media was aspirated post incubation and the attached biofilms were washed with 1×PBS to remove the planktonic bacteria. Each well was aliquoted with 20 μL of 10× peptide solution and 180 μL of fresh TSB media, plates were further incubated at 37° C. for 24 hours. Media aspirated from the wells and washed with 1×PBS to remove planktonic cells. Live cells in the biofilms were quantitated using XTT [2,3-bis(2-methyloxy-4-nitro-5-sulfophenyl)-2H-tertazolium-5-carboxanilide] assay by following the manufacturer's instructions with modifications. 180 μL of fresh TSB and 20 μL of XTT solution was added to each well and the plates further incubated at 37° C. for 2 hours. Absorbance was read at 450 nm (only media with XTT containing wells served as the blank) using a Chromate® microtiter plate reader. Percentage biofilm growth for the peptide was plotted by assuming 100% biofilm growth in bacterial control alone. The data is mean±SD, the significance at […]. […]

[8] = tested on: S. aureus M838-17 (MRSA); assay: microbe, parasite or virus in culture; assay type: cell-based, Staphylococcus aureus; settings: Staphylococcus aureus, MRSA; Table 7; by weight; read-out: MIC S. aureus M838-17 (MRSA)
In short: as §1

[9] = tested on: clinical strains of methicillin-resistant and susceptible S. aureus; assay: microbe, parasite or virus in culture; settings: for MIC: Staphylococcus aureus
Experimental: The antibacterial activity of peptides was evaluated using a standard broth microdilution protocol with minor modifications (Mishra, et al. (2017) Acta Biomater., 49:316-328). In brief, logarithmic phase bacterial cultures (i.e., optical density at 600 nm≈0.5) were diluted to 0.001 OD and aliquoted 90 μL per well into a 96-well polystyrene microplate. Added 10 μL peptides per well with various concentrations, plates were incubated at 37° C., overnight. Post incubation the plates are read at 630 nm using a ChroMate® Microplate Reader (GMI). […] To study the influence of medium conditions on the antimicrobial activity of peptides against S. aureus USA300 at different pHs (6.8, 7.2, and 8.0), 150 mM sodium chloride (NaCl), 5-10% of human serum, mouse plasma, and peritoneal fluid were included into the assays.

[10] = tested on: S. aureus USA300; assay type: cell-based, Staphylococcus aureus
Experimental: The experiment was carried out similar to the MIC determination with a few modifications (Ge, et al. (1999) Antimicrob. Agents Chemother., 43:782-788; Ling, et al. (2015) Nature 520:388). In short, an exponential phase S. aureus USA300 culture (i.e., optical density at 600 nm≈0.5) was diluted and partitioned into a 96-well polystyrene microplate with ˜10^5 colony forming units (CFU) per well (90 μL aliquots). After treatment with 10 μL of peptide or antibiotics solutions at various concentrations, microplates were incubated at 37° C. overnight and read on a ChroMate® 4300 Microplate Reader at 630 nm (GMI). […] Plots were made to determine the increase in the fold change (MIC on given passage/MIC recorded in first day of passage).
This experiment was performed similar to the MIC determination with a few modifications. […] After treatment with 10 μL of peptide or antibiotics solutions at various concentrations, microplates were incubated at 37° C. overnight and read on a ChroMate® Microplate Reader at 630 nm (GMI). […] The increase in the fold change (MIC on given passage/MIC recorded in first day of passage) used to determine the degree of drug resistance.

[11] = tested on: S. aureus USA300 biofilms; settings: 48-hour biofilms
Experimental: The antibiofilm activity of the peptide against 24 hours established biofilms was evaluated. In short, S. aureus USA300 (10^5 CFU/mL) was made from exponential phase bacteria in TSB media and 200 μL was distributed to each well of the microtiter plate (Corning Costar Cat No. 3595). The plates were incubated at 37° C. for 24 hours to form biofilm. Culture treated with water served as a positive control while media without bacterial inoculation served as the negative control. Media was then pipetted out and the attached biofilms were washed with 1×PBS to remove the planktonic bacteria. Each well of the plate was then filled with 20 μL of 10× peptide solution and 180 μL of fresh TSB media and the plates were further incubated at 37° C. for 24 hours. Media was then pipetted out and the wells were washed with 1×PBS to remove planktonic cells. Live cells in the biofilms were then quantitated using XTT [2,3-bis(2-methyloxy-4-nitro-5-sulfophenyl)-2H-tertazolium-5-carboxanilide] assay by following the manufacturer's instructions with modifications. 180 μL of fresh TSB and 20 μL of XTT solution was added to each well and the plates were again incubated at 37° C. for 2 hours. Absorbance at 450 nm (only media with XTT containing wells served as the blank) was obtained using a ChroMate® microtiter plate reader. […]

## C[C@@H](O)[C@H]1C(=O)N2C(C(=O)O)=C(S[C@@H]3CN[C@H](CNS(N)(=O)=O)C3)[C@H](C)[C@H]12 [Doripenem, reference compound]
[1]
  MIC: 0.25 µM (≈ 0.105 µg/mL)
[2]; Table 14
  MIC: > 8 µM
[3]
  MIC: 2 µM (≈ 0.841 µg/mL)
[4]
  MIC: 0.5 µM (≈ 0.21 µg/mL)
[5]
  MIC: 1 µM (≈ 0.421 µg/mL)
[6]
  MIC: > 8 µM
[7]
  Adhesion/attachment of K. pneumoniae: showed no effect
[7]; 48-hour biofilms
  Effect on 48-hour preformed biofilms: showed no effect

## CCOc1ccc2ccccc2c1C(=O)N[C@@H]1C(=O)N2[C@@H]1SC(C)(C)[C@@H]2C(=O)O [Nafcillin]
[8]
  MIC: 0.78 to 1.56 µM (≈ 0.323 to 0.647 µg/mL)
[2]; Table 7
  MIC: > 12.5 µM
[9]; MSSA, strain B243-16 MSSA
  MIC: < 0.25 µM
[9]; MSSA, strain B254-16 MSSA
  MIC: < 0.25 µM
[9]; MSSA, strain B255-16 MSSA
  MIC: < 0.25 µM
[9]; MSSA, strain B262-16 MSSA
  MIC: 0.5 µM (≈ 0.207 µg/mL)
[9]; MSSA, strain B269-16 MSSA
  MIC: 0.5 µM (≈ 0.207 µg/mL)
[9]; NEWMAN, strain Newman
  MIC: 0.25 µM (≈ 0.104 µg/mL)
[9]; USA200, strain USA200
  MIC: > 8 µM
[9]; USA300, strain USA300
  MIC: 0.5 µM (≈ 0.207 µg/mL)
[9]; USA400, strain USA400
  MIC: 1 µM (≈ 0.414 µg/mL)
[9]; strain M106-16
  MIC: 2 µM (≈ 0.829 µg/mL)
[9]; strain M108-16
  MIC: 1 µM (≈ 0.414 µg/mL)
[9]; strain M109-16
  MIC: 1 µM (≈ 0.414 µg/mL)
[9]; strain M111-16
  MIC: 8 µM (≈ 3.32 µg/mL)
[9]; strain M112-16
  MIC: 0.5 µM (≈ 0.207 µg/mL)
[9]; strain M113-16
  MIC: 0.5 µM (≈ 0.207 µg/mL)
[9]; strain M114-16
  MIC: 0.5 µM (≈ 0.207 µg/mL)
[9]; strain M116-16
  MIC: < 0.25 µM
[9]; strain M117-16
  MIC: 0.5 µM (≈ 0.207 µg/mL)
[9]; strain M118-16
  MIC: 0.5 µM (≈ 0.207 µg/mL)
[9]; strain M119-16
  MIC: 1 µM (≈ 0.414 µg/mL)
[9]; strain M120-16
  MIC: 2 µM (≈ 0.829 µg/mL)
[9]; strain M121-16
  MIC: 1 µM (≈ 0.414 µg/mL)
[9]; strain M122-16
  MIC: 1 µM (≈ 0.414 µg/mL)
[9]; strain M123-16
  MIC: 4 µM (≈ 1.66 µg/mL)
[9]; strain M126-16
  MIC: 1 µM (≈ 0.414 µg/mL)
[9]; strain M127-16
  MIC: 2 µM (≈ 0.829 µg/mL)
[9]; strain M128-16
  MIC: 8 µM (≈ 3.32 µg/mL)
[9]; strain M129-16
  MIC: 1 µM (≈ 0.414 µg/mL)
[9]; strain M130-16
  MIC: 1 µM (≈ 0.414 µg/mL)
[9]; strain UAMS-1
  MIC: 4 µM (≈ 1.66 µg/mL)
[9]; strain mu50
  MIC: > 8 µM
[9]; nafcillin at 8 μM
  Inhibition of Mu50 and USA200 strains: did not inhibit
[10]; after 16 passages, sub-MIC level
  MIC increase: 1000 fold
[10]; multiple passage experiment
  Resistance development: developed resistance
[11]
  Activity against 48-hour biofilms: did not
